Laboratory results reported in the CheMixHub viscosity set.

Assay: xn = mol fraction of the nth substance listed

OCCNCCO + CN1CCCC1=O
viscosity [mPa·s], 101 kPa
Conditions | 293.15 K | 303.15 K | 313.15 K | 323.15 K
x2 = 0.1012 | 457.2 | 211.6 | 100.2 | 38.39
x2 = 0.1941 | – | 103.8 | 43.29 | 27
x2 = 0.2002 | 222.2 | 106.2 | 60.47 | 24.87
x2 = 0.3004 | 85.35 | 47.36 | 28.26 | 17.59
x2 = 0.4003 | 53.69 | 31.19 | 19.32 | 12.45
x2 = 0.4024 | – | 31.82 | 15.04 | 10.25
x2 = 0.4998 | 27.76 | 16.74 | 10.6 | 7.513
x2 = 0.5851 | – | 16.32 | 7.42 | 6.32
x2 = 0.6003 | 16.21 | 9.543 | 5.75 | 3.961
x2 = 0.7 | 7.618 | 5.537 | 4.107 | 3.18
x2 = 0.7962 | – | 8.38 | 4.04 | 3.22
x2 = 0.7997 | 4.326 | 3.448 | 2.746 | 2.257
x2 = 0.8994 | 2.841 | 2.318 | 1.927 | 1.63

COCCOC + CCO
298.15 K, 101 kPa
Conditions | viscosity [mPa·s]
x1 = 0.05375 | 0.9565
x1 = 0.1133 | 0.8329
x1 = 0.1797 | 0.7369
x1 = 0.2542 | 0.663
x1 = 0.3383 | 0.5931
x1 = 0.434 | 0.5444
x1 = 0.544 | 0.4926
x1 = 0.8215 | 0.4356

CCOC(=O)C(C)Br (configuration not stated) + CCCCCC
303.15 K, 101 kPa
Conditions | viscosity [mPa·s]
x1 = 0.1996 | 0.372
x1 = 0.4039 | 0.5117
x1 = 0.5022 | 0.5973
x1 = 0.5991 | 0.7048
x1 = 0.7961 | 1.012

COc1ccccc1N + OCCCl
viscosity [mPa·s], 100 kPa
Conditions | x1 = 0.1041 | x1 = 0.2448 | x1 = 0.3401 | x1 = 0.4623 | x1 = 0.5621 | x1 = 0.6825 | x1 = 0.7612 | x1 = 0.8484 | x1 = 0.9217
303.15 K | 2.83 | 3.17 | 3.4 | 3.69 | 3.92 | 4.2 | 4.38 | 4.58 | 4.75
308.15 K | 2.5 | 2.83 | 3.05 | 3.33 | 3.55 | 3.82 | 4 | 4.19 | 4.35
313.15 K | 2.11 | 2.44 | 2.67 | 2.96 | 3.19 | 3.47 | 3.65 | 3.85 | 4.01
318.15 K | 1.82 | 2.15 | 2.38 | 2.66 | 2.9 | 3.17 | 3.35 | 3.55 | 3.71

CCCCC(CC)COC(=O)CC(C(=O)OCC(CC)CCCC)S(=O)(=O)[O-].C[NH+]1C=CN=C1 (configuration not stated) + O
99.6 kPa, x2 = 0.09474
Conditions | viscosity [mPa·s]
293.15 K | 3381
303.15 K | 1440
313.15 K | 684
323.15 K | 359

CCC(C)=O + CCCCn1cc[n+](C)c1.F[B-](F)(F)F
298.15 K, 101.33 kPa
Conditions | viscosity [mPa·s]
x2 = 0.7996 | 42.25
x2 = 0.8995 | 67.85

CC(CC(C)(C)C)CP(=O)([O-])CC(C)CC(C)(C)C.CCCC[P+](C)(CCCC)CCCC (configuration not stated) + CCCCCCCCCCCC
viscosity [mPa·s], 101 kPa
Conditions | 298.15 K | 303.15 K | 308.15 K | 313.15 K | 318.15 K | 323.15 K
x2 = 0.25 | 318 | 214 | 159 | 112 | 81.6 | 60.6
x2 = 0.43 | 88.6 | 67.8 | 53.6 | 41.9 | 34.4 | 27.1
x2 = 0.56 | 39.4 | 31 | 25.4 | 21.7 | 18.3 | 16.1

CCCCCCCC(=O)OCC + CCCCO
viscosity [mPa·s], 100 kPa
Conditions | x2 = 0.1124 | x2 = 0.2221 | x2 = 0.3 | x2 = 0.4 | x2 = 0.4999 | x2 = 0.5999 | x2 = 0.727 | x2 = 0.8203 | x2 = 0.9108
293.15 K | 1.508 | 1.507 | 1.521 | 1.548 | 1.587 | 1.651 | 1.795 | 2.014 | 2.351
298.15 K | 1.378 | 1.379 | 1.378 | 1.407 | 1.436 | 1.488 | 1.61 | 1.789 | 2.071
303.15 K | 1.264 | 1.261 | 1.263 | 1.295 | 1.307 | 1.36 | 1.468 | 1.611 | 1.842
308.15 K | 1.162 | 1.161 | 1.164 | 1.177 | 1.193 | 1.233 | 1.331 | 1.458 | 1.646
313.15 K | 1.069 | 1.062 | 1.06 | 1.07 | 1.09 | 1.122 | 1.194 | 1.307 | 1.467
318.15 K | 0.999 | 0.988 | 0.99 | 0.993 | 1.013 | 1.039 | 1.106 | 1.193 | 1.327
323.15 K | 0.932 | 0.927 | 0.92 | 0.925 | 0.94 | 0.958 | 1.011 | 1.091 | 1.208

C1CCCCC1 + CCCCO
Conditions | viscosity [mPa·s]
298.15 K, 101 kPa, x1 = 0.1014 | 2.225
298.15 K, 101 kPa, x1 = 0.1996 | 1.945
298.15 K, 101 kPa, x1 = 0.2962 | 1.699
298.15 K, 101 kPa, x1 = 0.4016 | 1.468
298.15 K, 101 kPa, x1 = 0.5032 | 1.274
298.15 K, 101 kPa, x1 = 0.597 | 1.123
298.15 K, 101 kPa, x1 = 0.6908 | 1.02
298.15 K, 101 kPa, x1 = 0.7923 | 0.9371
298.15 K, 101 kPa, x1 = 0.8856 | 0.8954
298.15 K, 101 kPa, x2 = 0.0216 | 0.876
298.15 K, 101 kPa, x2 = 0.1208 | 0.903
298.15 K, 101 kPa, x2 = 0.155 | 0.921
298.15 K, 101 kPa, x2 = 0.1796 | 0.931
298.15 K, 101 kPa, x2 = 0.3673 | 1.09
298.15 K, 101 kPa, x2 = 0.532 | 1.357
298.15 K, 101 kPa, x2 = 0.7128 | 1.752
298.15 K, 101 kPa, x2 = 0.8385 | 2.07
303.15 K, 101 kPa, x2 = 0.6491 | 1.196
303.15 K, 101.33 kPa, x2 = 0.2111 | 0.9317
303.15 K, 101.33 kPa, x2 = 0.298 | 0.9971
303.15 K, 101.33 kPa, x2 = 0.4038 | 1.095
303.15 K, 101.33 kPa, x2 = 0.489 | 1.187
303.15 K, 101.33 kPa, x2 = 0.8096 | 1.719
303.15 K, 101.33 kPa, x2 = 0.8981 | 1.941
308.15 K, 101 kPa, x2 = 0.0216 | 0.745
308.15 K, 101 kPa, x2 = 0.0714 | 0.754
308.15 K, 101 kPa, x2 = 0.1208 | 0.765
308.15 K, 101 kPa, x2 = 0.155 | 0.779
308.15 K, 101 kPa, x2 = 0.1796 | 0.787
308.15 K, 101 kPa, x2 = 0.3673 | 0.898
308.15 K, 101 kPa, x2 = 0.532 | 1.089
308.15 K, 101 kPa, x2 = 0.6491 | 1.083
308.15 K, 101 kPa, x2 = 0.7128 | 1.387
308.15 K, 101 kPa, x2 = 0.8385 | 1.627
313.15 K, 101 kPa, x1 = 0.1014 | 1.547
313.15 K, 101 kPa, x1 = 0.1996 | 1.363
313.15 K, 101 kPa, x1 = 0.2962 | 1.203
313.15 K, 101 kPa, x1 = 0.4016 | 1.054
313.15 K, 101 kPa, x1 = 0.5032 | 0.934
313.15 K, 101 kPa, x1 = 0.597 | 0.8408
313.15 K, 101 kPa, x1 = 0.6908 | 0.7773
313.15 K, 101 kPa, x1 = 0.7923 | 0.7265
313.15 K, 101 kPa, x1 = 0.8856 | 0.6993
313.15 K, 101 kPa, x2 = 0.6491 | 0.9869
318.15 K, 101 kPa, x2 = 0.0216 | 0.643
318.15 K, 101 kPa, x2 = 0.0714 | 0.645
318.15 K, 101 kPa, x2 = 0.1208 | 0.652
318.15 K, 101 kPa, x2 = 0.155 | 0.664
318.15 K, 101 kPa, x2 = 0.1796 | 0.672
318.15 K, 101 kPa, x2 = 0.3673 | 0.754
318.15 K, 101 kPa, x2 = 0.532 | 0.895
318.15 K, 101 kPa, x2 = 0.7128 | 1.114
318.15 K, 101 kPa, x2 = 0.8385 | 1.298
